Test system: L-41 cell line
Experiment: cytostatic activity on reinoculated tumor culture of L-41 cell line (protein content, % cell growth inhibition)
Assay type: cell-based
Protocol: The […] activity of a pharmaceutical formulation of the invention was tested with using reinoculated tumor cell cultures.
In the studies a reinoculated leukocyte culture of L-41 strain was used.
The cell culture was incubated by the conventional method. The inoculate density was 1-10^5 cells in 1 ml of nutrient medium. […] On day 2 from the start of the study, a biological activity of the proposed formulation was estimated using 4-point scale. The assays for protein in cultures were performed by the Louri method modified by the Oyama and Eagle.
The cytostatic activity of the proposed formulation was evaluated as the % inhibition of cell culture growth by the suppression of protein production.
According to the existing standard techniques for screening the antitumor preparations, a pharmaceutical formulation is recognized to be efficient when its ED50 is less or equal to 100 μg/ml.
Comparison of biologic activity of the proposed pharmaceutical
reinoculated tumor culture of L-41 cell line

[1] = mercury dichloride alone 1.0 μg/ml
[2] = mercury dichloride alone 3.3 μg/ml
[3] = mercury dichloride alone 5.0 μg/ml
[4] = mercury dichloride alone 8.0 μg/ml

## [Cl][Hg][Cl] [Mercury dichloride, mercury dichloride]
L-41 culture, Table 1 data
  ED50: about 8 μg/ml
[1]
  % of cell growth inhibition: 1.2%
  Protein content: 390.3 ± 2.6 µg/mL
[2]
  % of cell growth inhibition: 5.1%
  Protein content: 279.0 ± 27.3 µg/mL
[3]
  % of cell growth inhibition: 12.9%
  Protein content: 256.0 ± 5.2 µg/mL
[4]
  % of cell growth inhibition: 47.6%
  Protein content: 154.0 ± 5.0 µg/mL
Preliminary experiment
  ED50 (preliminary experiment): < 10 µg/mL

Reference: patent US5889048A, “Methods and compositions for treating defective cell functions” (priority 1994, dated 1999)
